In US20110097741A1, “PARTIAL T1R2 NUCLEIC ACID SEQUENCE, RECEPTOR PROTEIN AND ITS USE IN SCREENING ASSAYS” (priority 2006, published 2011):

Key:
[1] = tested on: host cells expressing only the G16gust44 chimeric G-protein; experiment: Fluo-4 calcium assay in negative control cells expressing G16gust44 only; assay type: cell-based, human
Method: As a negative control, mock transfected cells were exposed to the same concentration of ligand and the concentration of calcium traces not corresponding to a signal was determined.
As a result of said evalution, it was determined that when these cell lines are exposed to perillartine, many of cell clones respond to this stimulus with a significant increase in fluorescence which is greater than 10-times of the signal compared to the signal of the negative control (cells that express solely G16gust44 promiscuous G-protein but not T1R2-TMD).
The signals elicited by the test agents in cells that stably express G16gust44 and T1R2-TMD containing cells (formed as described in example 3) were compared to the signals obtained in cells that stably express G16gust44 and the T1R2/T1R3 heterodimer (formed as described in example 4), and as a negative control, cells that stably express G16gust44 were used.

T1R2-TMD = target: T1, T1R2-TMD (Homo sapiens, UniProt Q8TE23); experiment: Fluo-4 calcium assay in HEK293 cells stably expressing G16gust44 and T1R2-TMD; assay type: cell-based
T1 construct: first 45 amino acids of rat somatostatin type 3 receptor plus linker) (N); expressed in transfected cells; host or cells: HEK-293-T-Rex based cell line stably expressing G16gust44
T1 sequence (Q8TE23 564-839): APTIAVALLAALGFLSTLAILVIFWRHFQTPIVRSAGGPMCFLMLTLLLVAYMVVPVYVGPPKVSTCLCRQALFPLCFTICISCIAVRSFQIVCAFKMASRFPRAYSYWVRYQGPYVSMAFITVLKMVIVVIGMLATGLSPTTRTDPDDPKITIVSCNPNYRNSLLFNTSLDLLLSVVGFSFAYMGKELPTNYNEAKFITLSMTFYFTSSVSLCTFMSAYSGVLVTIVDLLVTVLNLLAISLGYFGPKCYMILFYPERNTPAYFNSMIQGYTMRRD
Excerpt: (§1) All examples use the human receptors.
Fluo-4 is a fluorescent indicator for intracellular calcium and allows to determine changes in the calcium concentration, in particular an increase in response to receptor activation occurring after ligand addition (for example perillartine or methyl chavicol).
HEK293 cells stably expressing G alpha 16 gustducin 44 and transfected with T1R2-TMD as described in example 3 were used as host cells.
Black, clear-bottom 96-well plates were used for all assays. They were seeded the day before with 8500 transfected cells per well and maintained at 37° C. overnight in a growth medium appropriate for the cells used. For HEK293 cells, Dulbecco's Modified Eagle medium containing high glucose, L-glutamine, pyroxidine hydrochloride, and supplemented with 10% fetal bovine serum was used for growth and maintenance of the HEK293 cells.
(§2) At the time of the assay, the growth medium was discarded and cells were incubated for 1 hour (at 37° C. in the dark) with 50 μl of a calcium assay solution consisting of 1.5 μM Fluo-4 AM (Molecular Probes™, Invitrogen, US) and 2.5 μM probenicid (Sigma-Aldrich) dissolved in a C1 buffer solution. C1 buffer solution contains 130 mM NaCl, 5 mM KCl, 10 mM Hepes, 2 mM CaCl2 and 10 mM glucose (pH 7.4).
After the initial 1 hour loading period, the plates were washed 5 times with 100 μl per well of C1 buffer using an automated plate washer (BioTek) and after washing, the plate was further incubated for 30 minutes at room temperature in the dark to allow for complete de-esterification of the Fluo-4-AM. […]
(§3) For assay reading, the plate was placed in a FLIPR (fluorescence imaging plate reader (FLIPR-Tetra, Molecular Devices)), and receptor activation was initiated following addition of 20 μl of a 10× concentrated ligand stock solution.
(§4) Fluorescence was continuously monitored for 15 seconds prior to ligand addition and for 105 seconds after ligand addition (45-105 sec may be sufficient). […]
(§5) Fluorescence Increase=Maximum Fluorescence−baseline fluorescence,
wherein the baseline fluorescence represents the mean fluorescence calculated for the first 10 to 15 seconds prior to ligand addition.
As a negative control, mock transfected cells were exposed to the same concentration of ligand and the concentration of calcium traces not corresponding to a signal was determined. […]
The data was calculated as described in example 1 and illustrated the net increase in fluorescence over baseline following stimulation of the cells with 50 μM perillartine. […]
HEK293T cells that stably express G16gust44 and T1R2-TMD (formed as described in example 3) are loaded with the calcium dye Fluo-4, and their response to perillartine is measured by using fluorescent calcium signals as described in example 1. […]

T1R2/T1R3 heterodimer = target: T2, T1R2/T1R3 heterodimer (Homo sapiens, UniProt Q8TE23); experiment: Fluo-4 calcium assay in cells stably expressing G16gust44 and the T1R2/T1R3 heterodimer; assay type: cell-based; conditions: 4-parameter logistic fit
T2 construct: expressed in transfected cells; host or cells: HEK-293-T-Rex based cell line stably expressing G16gust44
T2 sequence (Q8TE23 20-839): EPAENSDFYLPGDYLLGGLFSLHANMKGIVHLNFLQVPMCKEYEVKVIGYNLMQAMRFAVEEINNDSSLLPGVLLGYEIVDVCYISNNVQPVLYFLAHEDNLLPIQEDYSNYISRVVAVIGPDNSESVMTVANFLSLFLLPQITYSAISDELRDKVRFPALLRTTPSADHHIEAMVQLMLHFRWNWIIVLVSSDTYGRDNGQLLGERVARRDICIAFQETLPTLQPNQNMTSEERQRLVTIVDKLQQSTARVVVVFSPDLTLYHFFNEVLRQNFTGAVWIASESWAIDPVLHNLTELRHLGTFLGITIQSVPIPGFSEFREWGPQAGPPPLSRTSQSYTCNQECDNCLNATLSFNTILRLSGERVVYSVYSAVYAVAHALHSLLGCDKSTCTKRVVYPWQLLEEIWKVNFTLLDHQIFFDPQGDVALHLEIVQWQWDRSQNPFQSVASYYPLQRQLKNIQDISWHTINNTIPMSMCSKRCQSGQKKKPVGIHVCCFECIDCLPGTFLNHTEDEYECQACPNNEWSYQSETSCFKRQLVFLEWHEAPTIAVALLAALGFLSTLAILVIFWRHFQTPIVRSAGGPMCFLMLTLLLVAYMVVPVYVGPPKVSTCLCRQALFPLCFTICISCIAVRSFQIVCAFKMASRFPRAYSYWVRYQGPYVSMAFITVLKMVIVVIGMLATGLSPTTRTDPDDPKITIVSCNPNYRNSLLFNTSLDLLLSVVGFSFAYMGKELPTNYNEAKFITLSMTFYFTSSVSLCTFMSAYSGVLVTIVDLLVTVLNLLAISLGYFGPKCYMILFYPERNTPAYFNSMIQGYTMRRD
T2 sequence (Q7RTX0 21-852 C757R partner): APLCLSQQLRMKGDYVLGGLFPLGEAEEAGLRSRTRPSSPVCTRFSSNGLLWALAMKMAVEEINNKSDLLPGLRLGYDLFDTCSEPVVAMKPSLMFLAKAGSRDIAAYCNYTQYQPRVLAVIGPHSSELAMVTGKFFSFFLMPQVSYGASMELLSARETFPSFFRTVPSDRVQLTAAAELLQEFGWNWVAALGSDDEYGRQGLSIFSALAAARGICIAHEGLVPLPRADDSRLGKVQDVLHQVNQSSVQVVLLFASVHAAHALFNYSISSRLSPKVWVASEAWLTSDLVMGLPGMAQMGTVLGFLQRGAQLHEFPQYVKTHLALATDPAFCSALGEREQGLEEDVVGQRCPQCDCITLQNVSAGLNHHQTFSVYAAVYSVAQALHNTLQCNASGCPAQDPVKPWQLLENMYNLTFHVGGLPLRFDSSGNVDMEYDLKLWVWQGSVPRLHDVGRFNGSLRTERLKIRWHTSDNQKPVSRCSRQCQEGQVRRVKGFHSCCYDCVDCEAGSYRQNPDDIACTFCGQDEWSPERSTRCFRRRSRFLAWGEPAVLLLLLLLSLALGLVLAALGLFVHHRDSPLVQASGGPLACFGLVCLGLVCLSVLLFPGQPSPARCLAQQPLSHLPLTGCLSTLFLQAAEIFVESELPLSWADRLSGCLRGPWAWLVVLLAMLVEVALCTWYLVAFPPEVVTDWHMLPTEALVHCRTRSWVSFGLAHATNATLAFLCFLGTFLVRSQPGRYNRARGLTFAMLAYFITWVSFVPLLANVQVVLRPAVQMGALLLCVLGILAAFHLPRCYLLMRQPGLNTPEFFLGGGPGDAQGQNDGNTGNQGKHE
Method: as §1
as §2, with “7.4). […]” for “7.4).”
as §3, §4, §5
wherein the baseline fluorescence represents the mean fluorescence calculated for the first 10 to 15 seconds prior to ligand addition. […]
Resistant colonies were expanded, and identified as containing the T1R2/T1R3 sweet heterodimer by their response to various sweetener compounds including sucrose, sucralose, aspartame and acesulfame K, which was determined via automated fluorimetric imaging on the FLIPR-Tetra instrumentation (Molecular Devices) using the methods described in example 1. […]

SMILES	Negative control [RFU] ([1]; 100 micromolar, cells stably expressing G16gust44 only, average of two replicates)	calcium signaling upon stimulation (T1R2-TMD; 50 μM, cells stably expressing human T1R2-TMD, not in negative control)	AVERAGE [RFU] (net increase in fluorescence over baseline) (T1R2-TMD; T1R2-TMD/G16gust44 cells, 50 μM perillartine, no tetracycline induction)	EC50 (T1R2-TMD; T1R2-TMD, 4-parameter logistic fit, doses 0.1 to 200 micromolar) [µM]	increase in fluorescence, signal compared to the signal of the negative control (T1R2-TMD; many cell clones, 50 μM perillartine, absence of tetracycline induction, vs cells expressing solely G16gust44)	EC50 (T1R2/T1R3 heterodimer) [µM]	AVERAGE [RFU] (net increase in fluorescence over baseline) ([1]; G16gust44 ONLY (neg. control) cells, 50 μM perillartine)
C=CCc1ccc(OC)cc1 [Methyl chavicol]	732.195						
C=C(C)[C@@H]1CC=C(/C=N/O)CC1 [perillartine]		Significant increases	973.06	6.2	greater than 10 times	3.5	73.78
